Reference: patent publication US7138361B2, “Herbicidal heterocycles” (E. I. du Pont de Nemours and Company, priority 2000, dated 2006)

Legend:
Assay in all cases: Test C postemergence
Format in all cases: in vivo
[1] = tested on: lambsquarters (Chenopodium album)
Summary of the method: (§1)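 Pre- and postemergence treatments used a non-phytotoxic solvent/surfactant formulation; post-treated plants measured 2 to 18 cm. Greenhouse hold 12–14 d; % control estimated visually relative to controls.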

[2] = tested on: woolly cupgrass (Eriochloa villosa)
Summary of the method: as §1

[3] = tested on: Surinam grass (Brachiaria decumbens)
Summary of the method: as §1

[4] = tested on: common ragweed (Ambrosia elatior)
Summary of the method: as §1

[5] = tested on: morningglory (Ipomoea hederacea)
Summary of the method: as §1

[6] = tested on: chickweed (Stellaria media)
Summary of the method: as §1

[7] = tested on: goosegrass (Eleusine indica)
Summary of the method: as §1

[8] = tested on: giant foxtail (Setaria faberii)
Summary of the method: as §1

[9] = tested on: yellow nutsedge (Cyperus esculentus)
Summary of the method: as §1

[10] = tested on: bermudagrass (Cynodon dactylon)
Summary of the method: as §1

kochia (Kochia scoparia) = tested on: kochia (Kochia scoparia)
Summary of the method: as §1

soybean (Glycine max) = tested on: soybean (Glycine max)
Summary of the method: as §1

[11] = tested on: velvetleaf (Abutilon theophrasti)
Summary of the method: as §1

[12] = tested on: pigweed (Amaranthus retroflexus)
Summary of the method: as §1

[13] = tested on: johnsongrass (Sorghum halepense)
Summary of the method: as §1

[14] = Rate 250 g/ha, scale 0 to 100 (0 no effect, 100 complete control)
[15] = Rate 125 g/ha, scale 0 to 100, 0 no effect, 100 complete control
[16] = Rate 500 g/ha, scale 0 to 100 (0 no effect, 100 complete control)

## CCC(CC)c1ccn(C2CCN(c3ccc(C)c(OC)c3)C2=O)n1 (centres unmarked) [Compound 81]
[1]; Rate 31 g/ha, scale 0 to 100
  Plant response rating, Lambsquarters: 0
[1]; Rate 62 g/ha, scale 0 to 100
  Plant response rating, Lambsquarters: 60
[1]; [14]
  Plant response rating, Lambsquarters: 80
[2]; Rate 31 g/ha, scale 0 to 100
  Plant response rating, Cupgrass, Woolly: 0
[2]; Rate 62 g/ha, scale 0 to 100
  Plant response rating, Cupgrass, Woolly: 0
[2]; [15]
  Plant response rating, Cupgrass, Woolly: 0
[2]; [14]
  Plant response rating, Cupgrass, Woolly: 0
[3]; Rate 31 g/ha, scale 0 to 100
  Plant response rating, Surinam grass: 0
[3]; Rate 62 g/ha, scale 0 to 100
  Plant response rating, Surinam grass: 0
[3]; [15]
  Plant response rating, Surinam grass: 0
[3]; [14]
  Plant response rating, Surinam grass: 0
[4]; Rate 31 g/ha, scale 0 to 100
  Plant response rating, Ragweed, Common: 0
[4]; Rate 62 g/ha, scale 0 to 100
  Plant response rating, Ragweed, Common: 0
[4]; [15]
  Plant response rating, Ragweed, Common: 0
[4]; [14]
  Plant response rating, Ragweed, Common: 0
[5]; Rate 31 g/ha, scale 0 to 100
  Plant response rating, Morningglory: 50
[5]; Rate 62 g/ha, scale 0 to 100
  Plant response rating, Morningglory: 60
[5]; [15]
  Plant response rating, Morningglory: 80
[5]; [14]
  Plant response rating, Morningglory: 80
[6]; Rate 31 g/ha, scale 0 to 100
  Plant response rating, Chickweed: 0
[6]; Rate 62 g/ha, scale 0 to 100
  Plant response rating, Chickweed: 20
[6]; [15]
  Plant response rating, Chickweed: 20
[6]; [14]
  Plant response rating, Chickweed: 60
[7]; Rate 31 g/ha, scale 0 to 100
  Plant response rating, Goosegrass: 0
[7]; Rate 62 g/ha, scale 0 to 100
  Plant response rating, Goosegrass: 0
[7]; [15]
  Plant response rating, Goosegrass: 0
[7]; [14]
  Plant response rating, Goosegrass: 20
[8]; Rate 31 g/ha, scale 0 to 100
  Plant response rating, Foxtail, Giant: 0
[8]; Rate 62 g/ha, scale 0 to 100
  Plant response rating, Foxtail, Giant: 0
[8]; [15]
  Plant response rating, Foxtail, Giant: 0
[8]; [14]
  Plant response rating, Foxtail, Giant: 0
[9]; Rate 31 g/ha, scale 0 to 100
  Plant response rating, Nutsedge: 0
[9]; Rate 62 g/ha, scale 0 to 100
  Plant response rating, Nutsedge: 0
[9]; [15]
  Plant response rating, Nutsedge: 0
[9]; [14]
  Plant response rating, Nutsedge: 0
[10]; Rate 31 g/ha, scale 0 to 100
  Plant response rating, Bermudagrass: 0
[10]; Rate 62 g/ha, scale 0 to 100
  Plant response rating, Bermudagrass: 0
[10]; [15]
  Plant response rating, Bermudagrass: 0
[10]; [14]
  Plant response rating, Bermudagrass: 0
Kochia (Kochia scoparia); Rate 31 g/ha, scale 0 to 100
  Plant response rating, Kochia: 40
Kochia (Kochia scoparia); Rate 62 g/ha, scale 0 to 100
  Plant response rating, Kochia: 50
Kochia (Kochia scoparia); [15]
  Plant response rating, Kochia: 50
Kochia (Kochia scoparia); [14]
  Plant response rating, Kochia: 70
Soybean (Glycine max); Rate 31 g/ha, scale 0 to 100
  Plant response rating, Soybean: 50
Soybean (Glycine max); Rate 62 g/ha, scale 0 to 100
  Plant response rating, Soybean: 60
Soybean (Glycine max); [15]
  Plant response rating, Soybean: 70
Soybean (Glycine max); [14]
  Plant response rating, Soybean: 90
[11]; Rate 31 g/ha, scale 0 to 100
  Plant response rating, Velvetleaf: 20
[11]; Rate 62 g/ha, scale 0 to 100
  Plant response rating, Velvetleaf: 20
[11]; [15]
  Plant response rating, Velvetleaf: 20
[11]; [14]
  Plant response rating, Velvetleaf: 20
[12]; Rate 31 g/ha, scale 0 to 100
  Plant response rating, Pigweed: 0
[12]; Rate 62 g/ha, scale 0 to 100
  Plant response rating, Pigweed: 0
[12]; [15]
  Plant response rating, Pigweed: 0
[12]; [14]
  Plant response rating, Pigweed: 60
[13]; Rate 31 g/ha, scale 0 to 100
  Plant response rating, Johnsongrass: 0
[13]; Rate 62 g/ha, scale 0 to 100
  Plant response rating, Johnsongrass: 0
[13]; [15]
  Plant response rating, Johnsongrass: 0
[13]; [14]
  Plant response rating, Johnsongrass: 0

## CCCC(C)c1ccn(C2OCN(c3cccc(OC(F)(F)F)c3)C2=O)n1 (centres unmarked) [Compound 91]
[1]; Rate 62 g/ha, scale 0 to 100
  Plant response rating, Lambsquarters: 100
[1]; [15]
  Plant response rating, Lambsquarters: 100
[1]; [14]
  Plant response rating, Lambsquarters: 100
[1]; [16]
  Plant response rating, Lambsquarters: 100
[2]; Rate 62 g/ha, scale 0 to 100
  Plant response rating, Cupgrass, Woolly: 20
[2]; [15]
  Plant response rating, Cupgrass, Woolly: 20
[2]; [14]
  Plant response rating, Cupgrass, Woolly: 40
[2]; [16]
  Plant response rating, Cupgrass, Woolly: 40
[3]; Rate 62 g/ha, scale 0 to 100
  Plant response rating, Surinam grass: 20
[3]; [15]
  Plant response rating, Surinam grass: 20
[3]; [14]
  Plant response rating, Surinam grass: 30
[3]; [16]
  Plant response rating, Surinam grass: 30
[4]; Rate 62 g/ha, scale 0 to 100
  Plant response rating, Ragweed, Common: 0
[4]; [15]
  Plant response rating, Ragweed, Common: 0
[4]; [14]
  Plant response rating, Ragweed, Common: 0
[4]; [16]
  Plant response rating, Ragweed, Common: 40
[5]; Rate 62 g/ha, scale 0 to 100
  Plant response rating, Morningglory: 0
[5]; [15]
  Plant response rating, Morningglory: 0
[5]; [14]
  Plant response rating, Morningglory: 60
[5]; [16]
  Plant response rating, Morningglory: 90
[6]; Rate 62 g/ha, scale 0 to 100
  Plant response rating, Chickweed: 70
[6]; [15]
  Plant response rating, Chickweed: 80
[6]; [14]
  Plant response rating, Chickweed: 80
[6]; [16]
  Plant response rating, Chickweed: 90
[7]; Rate 62 g/ha, scale 0 to 100
  Plant response rating, Goosegrass: 20
[7]; [15]
  Plant response rating, Goosegrass: 20
[7]; [14]
  Plant response rating, Goosegrass: 30
[7]; [16]
  Plant response rating, Goosegrass: 40
[8]; Rate 62 g/ha, scale 0 to 100
  Plant response rating, Foxtail, Giant: 20
[8]; [15]
  Plant response rating, Foxtail, Giant: 20
[8]; [14]
  Plant response rating, Foxtail, Giant: 40
[8]; [16]
  Plant response rating, Foxtail, Giant: 40
[9]; Rate 62 g/ha, scale 0 to 100
  Plant response rating, Nutsedge: 0
[9]; [15]
  Plant response rating, Nutsedge: 0
[9]; [14]
  Plant response rating, Nutsedge: 0
[9]; [16]
  Plant response rating, Nutsedge: 20
[10]; Rate 62 g/ha, scale 0 to 100
  Plant response rating, Bermudagrass: 20
[10]; [15]
  Plant response rating, Bermudagrass: 20
[10]; [14]
  Plant response rating, Bermudagrass: 40
[10]; [16]
  Plant response rating, Bermudagrass: 60
Kochia (Kochia scoparia); Rate 62 g/ha, scale 0 to 100
  Plant response rating, Kochia: 70
Kochia (Kochia scoparia); [15]
  Plant response rating, Kochia: 70
Kochia (Kochia scoparia); [14]
  Plant response rating, Kochia: 90
Kochia (Kochia scoparia); [16]
  Plant response rating, Kochia: 90
Soybean (Glycine max); Rate 62 g/ha, scale 0 to 100
  Plant response rating, Soybean: 0
Soybean (Glycine max); [15]
  Plant response rating, Soybean: 0
Soybean (Glycine max); [14]
  Plant response rating, Soybean: 0
Soybean (Glycine max); [16]
  Plant response rating, Soybean: 0
[11]; Rate 62 g/ha, scale 0 to 100
  Plant response rating, Velvetleaf: 0
[11]; [15]
  Plant response rating, Velvetleaf: 0
[11]; [14]
  Plant response rating, Velvetleaf: 0
[11]; [16]
  Plant response rating, Velvetleaf: 0
[12]; Rate 62 g/ha, scale 0 to 100
  Plant response rating, Pigweed: 70
[12]; [15]
  Plant response rating, Pigweed: 70
[12]; [14]
  Plant response rating, Pigweed: 90
[12]; [16]
  Plant response rating, Pigweed: 100
[13]; Rate 62 g/ha, scale 0 to 100
  Plant response rating, Johnsongrass: 20
[13]; [15]
  Plant response rating, Johnsongrass: 20
[13]; [14]
  Plant response rating, Johnsongrass: 30
[13]; [16]
  Plant response rating, Johnsongrass: 70
